The target of test [1] is T1, Tyrosine-protein phosphatase non-receptor type 1 (Homo sapiens, UniProt P18031).
T1 sequence (P18031 whole entry): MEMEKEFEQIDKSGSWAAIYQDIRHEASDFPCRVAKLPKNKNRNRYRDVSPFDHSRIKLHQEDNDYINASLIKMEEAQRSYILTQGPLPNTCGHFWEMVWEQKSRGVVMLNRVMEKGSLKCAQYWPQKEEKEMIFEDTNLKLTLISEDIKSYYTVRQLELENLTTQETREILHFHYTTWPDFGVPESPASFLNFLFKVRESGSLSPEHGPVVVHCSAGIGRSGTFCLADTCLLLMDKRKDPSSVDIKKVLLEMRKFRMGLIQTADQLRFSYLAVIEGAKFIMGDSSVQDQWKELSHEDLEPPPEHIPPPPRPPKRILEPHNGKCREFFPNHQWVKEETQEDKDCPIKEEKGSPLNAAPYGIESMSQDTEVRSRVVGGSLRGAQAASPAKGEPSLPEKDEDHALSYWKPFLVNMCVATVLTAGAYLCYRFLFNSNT
Nature of the test: Inhibition of human recombinant PTP1B using pNPP as substrate assessed as reduction in p-nitrophenol release incubated for 30 mins by absorbance based analysis.

The target of test [2] is T2, Tyrosine-protein phosphatase non-receptor type 2 (Homo sapiens, UniProt P17706).
T2 sequence (P17706 whole entry): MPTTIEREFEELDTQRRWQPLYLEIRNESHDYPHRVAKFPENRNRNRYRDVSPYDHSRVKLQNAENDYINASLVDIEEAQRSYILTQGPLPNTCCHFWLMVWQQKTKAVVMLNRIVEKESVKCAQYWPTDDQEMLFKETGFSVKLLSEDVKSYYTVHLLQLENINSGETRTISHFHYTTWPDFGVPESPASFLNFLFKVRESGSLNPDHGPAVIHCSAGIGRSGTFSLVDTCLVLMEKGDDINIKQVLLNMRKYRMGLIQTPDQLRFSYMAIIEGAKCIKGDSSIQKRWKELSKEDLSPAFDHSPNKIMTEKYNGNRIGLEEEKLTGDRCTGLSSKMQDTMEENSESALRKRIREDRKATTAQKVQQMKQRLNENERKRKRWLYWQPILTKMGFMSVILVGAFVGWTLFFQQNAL
Nature of the test: Inhibition of human recombinant TCPTP using pNPP as substrate assessed as reduction in p-nitrophenol release incubated for 30 mins by absorbance based analysis.

SMILES strings stand for the structures.

Consider `C=C1C(=O)O[C@@H]2/C=C(\C)CC/C=C(\C)C[C@@H](OC(=O)/C(=C/CO)CO)[C@@H]12`, for which the IC50 in test [1] and in test [2] was over 28 µM throughout.
On to `C=C1C(=O)O[C@@H]2/C=C(\C)CC/C=C(\C)C[C@@H](OC(=O)/C(=C\C)CO)[C@@H]12`, for which the IC50 worked out at 11 µM in test [1] and 25 µM in test [2].
Consider `C=C1C(=O)O[C@@H]2/C=C(\C)C[C@H](O)/C=C(\C)C[C@@H](OC(=O)/C(=C\C)COC(C)=O)[C@@H]12`, for which the half-maximal inhibitory concentration (IC50) in test [1] and in test [2] was over 25 µM in each case.
On to `C=C1C(=O)O[C@@H]2/C=C(\C)CC/C=C(\CO)C[C@@H](OC(=O)/C(C)=C/C)[C@@H]12`, for which the IC50 in test [1] and in test [2] was over 25 µM throughout.
As to `C=C1C(=O)O[C@@H]2/C=C(\C)CC/C=C(\C)C[C@@H](OC(=O)/C(=C/C)CO)[C@@H]12`, the IC50 in test [1] and in test [2] was over 29 µM throughout.
Consider `C=C1C(=O)O[C@@H]2/C=C(\C)[C@@H](O)C/C=C(\C)C[C@@H](OC(=O)/C(=C\C)COC(C)=O)[C@@H]12`, for which the 50% inhibitory concentration (IC50) in test [1] was 25 µM; in test [2], over 25 µM.
The corresponding values for `C=C1C(=O)O[C@@H]2/C=C(\C)CC/C=C(\C)C[C@@H](OC(=O)/C(=C/C)COC(C)=O)[C@@H]12` are over 25 µM and over 25 µM.
The matching figures for `C=C1C(=O)O[C@@H]2/C=C(\C)CC/C=C(\C)C[C@@H](OC(=O)/C(=C\COC(C)=O)CO)[C@@H]12`: over 29 µM and over 29 µM.
Regarding `C=C1C(=O)O[C@@H]2/C=C(\C)C[C@H](O)/C=C(\C)C[C@@H](OC(=O)/C(=C\C)CO)[C@@H]12`, the IC50 in test [1] was 28 µM; in test [2], over 28 µM.

The term IC50 denotes the concentration needed to halve the response being measured.

The values are drawn from ChEMBL document CHEMBL5053534, “Germacrane sesquiterpenes from leaves of Eupatorium chinense inhibit protein tyrosine phosphatase” (Bioorg Med Chem Lett, 2021).
